Molecular target: T1, hFASN enzyme (full length) (Homo sapiens, UniProt P49327)
T1 construct: 10 μL hFASN enzyme (full length, 300 ng, purified in house); made in house
Assay: Fatty Acid Synthase (FASN) inhibition scintillation proximity assay
Assay type: biochemical
Settings: for inhibition at 10 µM: read-out: Human FASN % inhibition @ 10 μM, 10 μM test compound; for IC50: read-out: Human FASN pIC50 (converted)
How it was run: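 Purified full-length hFASN (300 ng) converts ^3H-acetyl-CoA plus malonyl-CoA to ^3H-palmitate in 100 mM KH2PO4 pH 7.5, 1 mM DTT; compounds tested at 0.01–30 μM. Product captured on streptavidin imaging beads and read by LEADseeker at 610 nm after ≥24 h; 4-parameter logistic fit versus controls.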

T1 sequence (P49327 whole entry): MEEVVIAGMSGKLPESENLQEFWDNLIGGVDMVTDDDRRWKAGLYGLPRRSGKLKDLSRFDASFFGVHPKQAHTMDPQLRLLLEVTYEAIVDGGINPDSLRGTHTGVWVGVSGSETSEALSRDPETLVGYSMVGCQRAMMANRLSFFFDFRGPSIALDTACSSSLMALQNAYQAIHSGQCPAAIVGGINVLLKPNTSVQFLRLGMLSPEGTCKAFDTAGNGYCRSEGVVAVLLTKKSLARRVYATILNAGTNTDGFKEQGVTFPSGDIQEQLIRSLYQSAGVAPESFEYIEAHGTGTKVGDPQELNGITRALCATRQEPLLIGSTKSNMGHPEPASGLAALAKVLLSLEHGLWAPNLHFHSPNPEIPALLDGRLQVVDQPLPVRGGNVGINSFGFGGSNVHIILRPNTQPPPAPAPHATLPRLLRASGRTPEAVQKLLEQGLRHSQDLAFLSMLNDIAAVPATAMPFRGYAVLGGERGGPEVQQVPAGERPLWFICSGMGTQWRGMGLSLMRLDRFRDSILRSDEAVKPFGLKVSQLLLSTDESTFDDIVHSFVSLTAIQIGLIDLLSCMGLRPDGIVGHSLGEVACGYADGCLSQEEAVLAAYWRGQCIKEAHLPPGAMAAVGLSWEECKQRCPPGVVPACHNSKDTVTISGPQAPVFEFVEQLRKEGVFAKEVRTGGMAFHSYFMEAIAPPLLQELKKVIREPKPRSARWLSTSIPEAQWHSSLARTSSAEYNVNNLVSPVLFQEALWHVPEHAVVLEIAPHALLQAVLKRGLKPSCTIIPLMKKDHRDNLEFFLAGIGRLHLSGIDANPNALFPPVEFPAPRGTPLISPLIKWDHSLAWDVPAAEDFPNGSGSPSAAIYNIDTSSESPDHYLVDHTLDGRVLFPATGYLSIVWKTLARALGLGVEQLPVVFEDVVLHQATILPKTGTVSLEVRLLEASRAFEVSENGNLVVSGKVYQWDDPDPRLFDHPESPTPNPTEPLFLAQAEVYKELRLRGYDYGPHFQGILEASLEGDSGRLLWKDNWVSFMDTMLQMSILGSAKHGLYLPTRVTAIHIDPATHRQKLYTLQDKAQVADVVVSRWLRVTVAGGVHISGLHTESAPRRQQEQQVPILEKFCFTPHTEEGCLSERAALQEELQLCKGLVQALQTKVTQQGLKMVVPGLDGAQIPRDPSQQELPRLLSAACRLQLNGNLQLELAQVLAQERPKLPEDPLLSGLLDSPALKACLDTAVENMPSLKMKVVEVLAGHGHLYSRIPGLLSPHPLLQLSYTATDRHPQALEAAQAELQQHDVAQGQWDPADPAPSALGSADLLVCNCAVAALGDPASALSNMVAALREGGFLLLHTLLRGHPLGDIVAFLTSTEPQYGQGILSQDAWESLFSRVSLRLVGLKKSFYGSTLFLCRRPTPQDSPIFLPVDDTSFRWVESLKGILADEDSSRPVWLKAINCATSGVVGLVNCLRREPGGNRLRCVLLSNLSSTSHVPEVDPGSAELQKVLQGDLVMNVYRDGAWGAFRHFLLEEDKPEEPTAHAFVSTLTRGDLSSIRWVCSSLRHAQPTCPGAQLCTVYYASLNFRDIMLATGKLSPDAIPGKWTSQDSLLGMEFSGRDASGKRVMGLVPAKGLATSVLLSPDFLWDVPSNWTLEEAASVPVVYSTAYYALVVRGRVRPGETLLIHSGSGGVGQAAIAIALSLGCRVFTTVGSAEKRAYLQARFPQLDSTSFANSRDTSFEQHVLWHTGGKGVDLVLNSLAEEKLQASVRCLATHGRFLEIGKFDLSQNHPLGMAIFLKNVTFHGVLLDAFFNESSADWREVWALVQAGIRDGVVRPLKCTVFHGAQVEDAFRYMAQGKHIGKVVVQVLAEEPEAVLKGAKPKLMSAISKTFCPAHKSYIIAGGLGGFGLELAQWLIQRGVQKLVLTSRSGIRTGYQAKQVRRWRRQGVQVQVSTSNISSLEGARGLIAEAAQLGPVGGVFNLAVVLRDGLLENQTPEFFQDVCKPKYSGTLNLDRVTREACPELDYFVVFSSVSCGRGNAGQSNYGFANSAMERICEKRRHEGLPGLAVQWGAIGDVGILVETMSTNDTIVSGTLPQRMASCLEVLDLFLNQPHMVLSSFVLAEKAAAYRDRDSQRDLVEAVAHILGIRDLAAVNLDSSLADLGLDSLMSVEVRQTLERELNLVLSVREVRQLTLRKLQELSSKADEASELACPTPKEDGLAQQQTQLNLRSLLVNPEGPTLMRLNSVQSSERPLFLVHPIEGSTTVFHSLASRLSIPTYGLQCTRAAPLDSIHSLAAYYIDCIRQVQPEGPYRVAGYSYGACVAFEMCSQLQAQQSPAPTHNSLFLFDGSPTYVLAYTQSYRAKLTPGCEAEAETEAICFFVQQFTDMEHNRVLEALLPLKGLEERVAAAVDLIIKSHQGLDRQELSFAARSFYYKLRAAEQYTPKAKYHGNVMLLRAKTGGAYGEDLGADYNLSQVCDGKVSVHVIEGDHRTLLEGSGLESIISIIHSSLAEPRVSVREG

SMILES | inhibition at 10 µM [%] | IC50 [µM]
O=C(C1CC1)N1CC[C@@H](CN2C(=O)C3(CC3)N=C2c2ccc(-c3ccc4c(c3)CCCO4)cc2)C1 [compound 464, 6-{[(3R)-1-(Cyclopropylcarbonyl)pyrrolidin-3-yl]methyl}-5-[4-(3,4-dihydro-2H-chromen-6-yl)phenyl]-4,6-diazaspiro[2.4]hept-4-en-7-one] | 66 | 4.07
N#Cc1cccc(-c2ccc(C3=NC4(CC4)C(=O)N3C[C@@H]3CCN(C(=O)C4CC4)C3)cc2)c1 [compound 123, 4′-(6-{[(3R)-1-(Cyclopropylcarbonyl)pyrrolidin-3-yl]methyl}-7-oxo-4,6-diazaspiro[2.4]hept-4-en-5-yl)biphenyl-3-carbonitrile] | 81.5 | 1.26
Cn1ncc2cc(-c3ccc(C4=NC5(CC5)C(=O)N4CC4CN(C(=O)C5CC5)C4)cc3F)ccc21 [compound 441, 6-{[1-(Cyclopropylcarbonyl)azetidin-3-yl]methyl}-5-[3-fluoro-4-(1-methyl-1H-indazol-5-yl)phenyl]-4,6-diazaspiro[2.4]hept-4-en-7-one] | 63 | 3.98
Cc1cc2cc(-c3ccc(C4=NC5(CCN(C(C)C)CC5)C(=O)N4C[C@@H]4CCN(C(=O)C5CC5)C4)cc3)ccc2o1 [compound 186, 3-{[(3R)-1-(Cyclopropylcarbonyl)pyrrolidin-3-yl]methyl}-2-[4-(2-methyl-1-benzofuran-5-yl)phenyl]-8-(1-methylethyl)-1,3,8-triazaspiro[4.5]dec-1-en-4-one] | 80.4 | 1.55
Cc1cc(C2=NC3(CC3)C(=O)N2CC2CN(C(=O)C3CC3)C2)ccc1-c1ccc2oc(C#N)cc2c1 [compound 460, 5-[4-(6-{[1-(Cyclopropylcarbonyl)azetidin-3-yl]methyl}-7-oxo-4,6-diazaspiro[2.4]hept-4-en-5-yl)-2-methylphenyl]-1-benzofuran-2-carbonitrile] | 63 | 3.09
CS(=O)(=O)Nc1cccc(-c2ccc(C3=NC4(CCCC4)C(=O)N3C[C@@H]3CCN(C(=O)C4CC4)C3)cc2)c1 [compound 84, N-[4′-(3-{(3R)-1-(Cyclopropylcarbonyl)pyrrolidin-3-yl]methyl}-4-oxo-1,3-diazaspiro[4.4non-1-en-2-yl)biphenyl-3-yl]methanesulfonamide] | 89.2 | 1
CN(C)CC(=O)N1CCC2(CC1)N=C(c1ccc(-c3ccc4[nH]ccc4c3)cc1)N(C[C@@H]1CCN(C(=O)C3CC3)C1)C2=O [compound 164, 3-{[(3R)-1-(Cyclopropylcarbonyl)pyrrolidin-3-yl]methyl}-8-(N,N-dimethylflycyl)-2-[4-(1H-indol-5-yl)phenyl]-1,3,8-triazaspiro[4.5]dec-1-en-4-one] | 115 | 0.0398
CC(C)N1CCC2(CC1)N=C(c1ccc(-c3ccc4c(cnn4C)c3)cc1)N(CC1CN(C(=O)C3CC3)C1)C2=O [compound 169, 3-{[1-(Cyclopropylcarbonyl)azetidin-3-yl]methyl}-8-(1-methylethyl)-2-[4-(1-methyl-1H-indazol-5-yl)phenyl]-1,3,8-triazaspiro[4.5]dec-1-en-4-one] | 45.7 | > 10
Cc1cc2cc(-c3ccc(C4=NC5(CCN(C(=O)C(C)C)CC5)C(=O)N4C[C@@H]4CCN(C(=O)C5CC5)C4)cc3)ccc2o1 [compound 172, 3-{[(3R)-1-(Cyclopropylcarbonyl)pyrrolidin-3-yl]methyl}-2-[4-(2-methyl-1-benzofuran-5-yl)phenyl]-8-(2-methylpropanoyl)-1,3,8-triazaspiro[4.5]dec-1-en-4-one] | 108 | 0.251
O=C(C1CC1)N1CC(CN2C(=O)C3(CCNCC3)N=C2c2ccc(-c3ccc4cnccc4c3)cc2)C1 [compound 132, 3-{[1-(Cyclopropylcarbonyl)azetidin-3-yl]methyl}-2-(4-isoquinolin-6-ylphenyl)-1,3,8-triazaspiro[4.5]dec-1-en-4-one] | 83.7 | 1.7

Results, then the compound that gave them:

inhibition at 10 µM [%] | IC50 [µM] | SMILES
69 | 2 | O=C(C1CC1)N1CC(CN2C(=O)C3(CC3)N=C2c2ccc(-c3ccc(-n4ccnc4)nc3)cc2)C1 [compound 509, 6-{[1-(Cyclopropylcarbonyl)azetidin-3-yl]methyl}-5-{4-[6-(1H-imidazol-1-yl)pyridin-3-yl]phenyl}-4,6-diazaspiro[2.4]hept-4-en-7-one]
92 | 1.38 | O=C(C1CC1)N1CC[C@@H](CN2C(=O)C3(CC3)N=C2c2ccc(-c3cc4cc(Br)ccc4cn3)cc2)C1 [compound 478, 5-[4-(6-Bromoisoquinolin-3-yl)phenyl]-6-{[(3R)-1-(cyclopropylcarbonyl)pyrrolidin-3-yl]methyl}-4,6-diazaspiro[2.4]hept-4-en-7-one]
52 | 8.71 | COC(=O)N1CC[C@@H](CN2C(=O)C3(CCOCC3)N=C2c2ccc(-c3ccc(-c4cnn(C)c4)cc3)cc2)C1 [compound 658, Methyl (3S)-3-({2-[4′-(1-methyl-1H-pyrazol-4-yl)biphenyl-4-yl]-4-oxo-8-oxa-1,3-diazaspiro[4.5]dec-1-en-3-yl}methyl)pyrrolidin-1-carboxlate]
20 | > 10 | COC(=O)N1CC[C@@H](CN2C(=O)C3(CN(C(=O)OC)C3)N=C2c2ccc(-c3ccc4c(cnn4C)c3)cc2)C1 [compound 916, (S)-methyl 7-((1-(methoxycarbonyl)pyrrolidin-3-yl)methyl)-6-(4-(1-methyl-1H-indazol-5-yl)phenyl)-8-oxo-5,7-triazaspiro[3.4]oct-5-ene-2-carboxylate]
55 | 6.46 | CC(O)C(=O)N1CC(CN2C(=O)C3(CCOCC3)N=C2c2ccc(-c3ccc4c(cnn4C)c3)cc2)C1 (stereo not drawn) [compound 707, 3-{[1-(2-Hydroxypropanoyl)azetidin-3-yl]methyl}-2-[4-(1-methyl-1H-indazol-5-yl)phenyl]-8-oxa-1,3-diazaspiro[4.5]dec-1-en-4-one]
37 | > 10 | COC(=O)N1CC2(C1)N=C(c1ccc(-c3ccc4occc4c3)cc1)N(C[C@@H]1CCN(C(=O)C(F)(F)F)C1)C2=O [compound 946, (R)-methyl 6-(4-(benzofuran-5-yl)phenyl)-8-oxo-7-((1-(2,2,2-trifluoroacetyl)pyrrolidin-3-yl)methyl)-2,5,7-triazaspiro[3.4]oct-5-ene-2-carboxylate]
76 | 1.91 | CC(C)C(=O)N1CCC2(CC1)N=C(c1ccc(-c3ccc(-c4cnn(C)c4)cc3)cc1)N(CC1CN(C(=O)C3CC3)C1)C2=O [compound 767, 3-{[1-(Cycloprropylcarbonyl)azetidin-3-yl]methyl}-8-(2-methylpropanoyl)-2-[4′-(1-methyl-1H-pyrazol-4-yl)biphenyl-4-yl]-1,3,8-triazaspiro[4.5]dec-1-en-4-one]
43 | 5.89 | CC(O)C(=O)N1CC(CN2C(=O)C3(CCOCC3)N=C2c2ccc(-c3ccc(-c4cnn(C)c4)cc3)cc2)C1 (stereo not drawn) [compound 695, 3-{[1-(2-Hydroxypropanoyl)azetidin-3-yl]methyl}-2-[4′-(1-methyl-1H-pyrazol-4-yl)biphenyl-4-yl]-8-oxa-1,3-diazaspiro[4.5]dec-1-en-4-one]

Source: patent US10077261B2, “Imidazolin-5-one derivative useful as FASN inhibitors for the treatment of cancer” (Janssen Pharmaceutica NV, priority 2012, dated 2018)
